Columns and labels:
MCF-7 = assay: NCI-60 single dose screen, MCF-7; assay type: cell-based; conditions: Homo sapiens, MCF7; Breast cancer; single concentration 10^−5 M; read-out: IGP (inhibition growth percent) MCF-7
Method: (§1) Aside from above, compounds 9–14 and 17–24 were also submitted to National Cancer Institute and evaluated for the cytotoxic effects toward 60 cell lines at a single dose of 10 μM (Table 2). […] As it was summarized in Table 2, leukemia RPMI-8226 and NSCLC A549/ATCC were most sensitive to compounds 18, 22, and 24. These derivatives in 10 μM concentration inhibited the growth of approximately 50% cells belonging to the above mention cell lines.
(§2) Cytotoxicity evaluation of compounds 9–14 and 17–24 was performed at the National Cancer Institute according to NCI-60 DTP human tumor cell line screen procedure.

UACC-62 = assay: NCI-60 single dose screen, UACC-62; assay type: cell-based; conditions: Homo sapiens, Melanoma, single concentration 10^−5 M, read-out: IGP (inhibition growth percent) UACC-62
Method: as §1, §2

HOP-92 = assay: NCI-60 single dose screen, HOP-92; assay type: cell-based; conditions: Homo sapiens, NSCLC, single concentration 10^−5 M, read-out: IGP (inhibition growth percent) HOP-92
Method: as §1, §2

[1] = Metabolic stability in human liver microsomes with NADPH; assay type: in vitro ADME; conditions: pooled human liver microsomes, pH 7.4, human liver microsomes 0.5 mg/cm^3, NADPH 1 mM, 10 μM compound, 37 °C, read-out: in vitro metabolic half-life t1/2
Method: Selected derivatives were submitted to metabolic stability study to assess their ability to remain unchanged in the presence of human metabolic enzymes. Human liver microsomes were used as they are a rich source of all common CYP isoenzymes. In vitro incubations were performed in the presence of NADPH as a cofactor and the disappearance of a derivative was followed using LC–MS technique. The in vitro metabolic half-life values are gathered in Fig. 3.
Stock solutions of studied compounds were prepared at concentration of 10 mM in DMSO. […] Incubation mixture contained 10 μM of a studied derivative, 1 mM of NADPH (Sigma-Aldrich) and 0.5 mg/cm^3 of pooled human liver microsomes (HLM, Sigma-Aldrich) in potassium phosphate buffer (0.1 M, pH 7.4). Incubation was carried out in thermostat at 37 °C and started by addition of studied compound. 50 mm^3 samples were taken at starting point and after 5, 15, 30, 45, and 60 min. Enzymatic reaction was terminated by the addition of the equal volume of ice-cold acetonitrile. Incubations were performed in triplicates, the average t1/2 and standard deviation was calculated. Control incubations were performed without NADPH to assess chemical instability. After collection, samples were immediately centrifuged (10 min, 10,000 rpm) and resulted supernatant was directly analyzed or kept in − 80 °C until LC–MS analysis. Natural logarithm of a compound over IS peak area ratio was plotted versus incubation time. Metabolic half-time (t1/2) was calculated from the slope of the linear regression.
LC–MS analysis was performed on an Agilent 1260 system coupled to SingleQuad 6120 mass spectrometer (Agilent Technologies, Santa Clara, CA, USA). Poroshell EC-C18 (2.1 mm × 150 mm, 2.7 μm, Agilent Technologies, Santa Clara, CA, USA) was used in reversed-phase mode with gradient elution starting with 5% of phase A (10 mM ammonium formate in water) and 95% of phase B (10 mM ammonium formate in acetonitrile–water mixture, 95:5 v/v). […] Total analysis time was 15 min at 40 °C, flow rate was 1 cm^3/min and the injection volume was 5 mm^3. The mass spectrometer was equipped with electrospray ion source and operated in positive ionization. Mass analyzer was set individually to each compound to detect [M+H]^+ protonated molecule. MSD parameters of the ESI source were as follows: nebulizer pressure 35 psig (N2), drying gas […] (N2), drying gas temperature 300 °C, capillary voltage 3 kV, fragmentor voltage 150 V.

MCF-7 (breast cancer) = assay: MTT cell viability assay, MCF-7; assay type: cell-based, human; conditions: Homo sapiens, MCF7, 72 h, mean ± SD
Method: (§3) All of the newly synthesized compounds 9–24 were evaluated for their effects on cell viability in three human cancer cell lines: HCT-116 (colon cancer), HeLa (cervical cancer), and MCF-7 (breast cancer). Cisplatin was used as reference drug. […] Considering the activity of derivatives 9–12, 15, 17, 18, and 21–24, it can be noticed that phenyl group as R^3 bring an increase of cytotoxicity in comparison with methyl in place of R^3. However, this impact seems to be the most important for compounds with the bulky group in R^1 and generally, it is less for a set of derivatives with methyl group substituted in R^1 (9–12).
(§4) All chemicals, if not stated otherwise, were obtained from Sigma-Aldrich (St. Louis, MO, USA). The MCF-7 and HeLa cell lines were purchased from Cell Lines Services (Eppelheim, Germany), the HCT-116 cell line was purchased from ATCC (ATCC-No: CCL-247). Cells were cultured in Dulbecco’s modified Eagle’s medium (DMEM) supplemented with 10% fetal bovine serum, 2 mM glutamine, 100 units/cm^3 penicillin, and 100 μg/cm^3 streptomycin. Cultures were maintained in a humidified atmosphere with 5% CO2 at 37 °C in an incubator (Heraceus, HeraCell).
(§5) Cell viability was determined using the MTT (3-(4,5-dimethylthiazol-2-yl)-2,5-diphenyltetrazolium bromide) assay. Cells were seeded in 96-well plates at a density of 5 × 10^3 cells/well and treated for 72 h with the examined compounds in the concentration range 1–100 μM (1, 10, 25, 50, and 100 μM). Following treatment, MTT (0.5 mg/cm^3) was added to the medium and cells were further incubated for 2 h at 37 °C. Cells were lysed with DMSO and the absorbance of the formazan solution was measured at 550 nm with a plate reader (Victor, 1420 multilabel counter). […] The experiment was performed in triplicate. Values are expressed as the mean ± SD of at least three independent experiments.

MOLT-4 = assay: NCI-60 single dose screen, MOLT-4; assay type: cell-based; conditions: Homo sapiens, Leukemia, single concentration 10^−5 M, read-out: IGP (inhibition growth percent) MOLT-4
Method: as §1, §2

EKVX = assay: NCI-60 single dose screen, EKVX; assay type: cell-based; conditions: Homo sapiens, NSCLC, single concentration 10^−5 M, read-out: IGP (inhibition growth percent) EKVX
Method: as §1, §2

HCT-116 (colon cancer) = assay: MTT cell viability assay, HCT-116; assay type: cell-based; conditions: Homo sapiens, 72 h, mean ± SD
Method: as §4, §5

HeLa (cervical cancer) = assay: MTT cell viability assay, HeLa; assay type: cell-based; conditions: Homo sapiens
Method: as §4, §5

SR = assay: NCI-60 single dose screen, SR; assay type: cell-based; conditions: Homo sapiens, Leukemia, single concentration 10^−5 M, read-out: IGP (inhibition growth percent) SR
Method: as §1, §2

HCT-116 = assay: NCI-60 single dose screen, HCT-116; assay type: cell-based; conditions: Homo sapiens, Colon cancer, single concentration 10^−5 M, read-out: IGP (inhibition growth percent) HCT-116
Method: as §1, §2

RPMI-8226 = assay: NCI-60 single dose screen, RPMI-8226; assay type: cell-based; conditions: Homo sapiens, RPMI-8226, Leukemia; single concentration 10^−5 M; read-out: IGP (inhibition growth percent) RPMI-8226
Method: as §1, §2

UO-31 = assay: NCI-60 single dose screen, UO-31; assay type: cell-based; conditions: Homo sapiens, Renal cancer, single concentration 10^−5 M, read-out: IGP (inhibition growth percent) UO-31
Method: as §1, §2

HCT-116, HeLa, MCF-7 = assay: MTT assays, mean over three tested cell lines; assay type: cell-based; conditions: Homo sapiens, mean of HCT-116, HeLa, read-out: mean IC50 against three tested cell lines
Method: as §3, §5

PC-3 = assay: NCI-60 single dose screen, PC-3; assay type: cell-based; conditions: Homo sapiens, Prostate cancer, single concentration 10^−5 M, read-out: IGP (inhibition growth percent) PC-3
Method: as §1, §2

NCI-H522 = assay: NCI-60 single dose screen, NCI-H522; assay type: cell-based; conditions: Homo sapiens, NSCLC, single concentration 10^−5 M, read-out: IGP (inhibition growth percent) NCI-H522
Method: as §1, §2

A549/ATCC = assay: NCI-60 single dose screen, A549/ATCC; assay type: cell-based; conditions: Homo sapiens, A549, NSCLC; single concentration 10^−5 M; read-out: IGP (inhibition growth percent) A549/ATCC
Method: as §1, §2

HaCaT = assay: Cytotoxic effect against non-carcinogenic cell line HaCaT; assay type: cell-based
Method: For the compounds with the strongest cytotoxicity (12, 18, 22, and 24), an investigation of cytotoxic effect against non-carcinogenic cell line HaCaT was done. […] The activity against HCT-116 was 1.7-, 1.6-, 1.5-, and 1.4-fold higher when compared with HaCaT cell line, for compounds 12, 18, 22, and 24, respectively.
as §5

[2] = Table 4, repeats Table 1 values without SD and unit

| Compound | half-life at 10 μM [1] [min] | IC50 (MCF-7 (breast cancer)) [µM] | IC50 (HCT-116 (colon cancer)) [µM] | IC50 (HeLa (cervical cancer); MTT, 72 h, mean ± SD) [µM] | IC50 (HeLa (cervical cancer); [2]) [µM] | melting point | inhibition at 10 µM (MCF-7) [%] | inhibition at 10 µM (UACC-62) [%] | inhibition at 10 µM (HOP-92) [%] | inhibition at 10 µM (MOLT-4) [%] | inhibition at 10 µM (EKVX) [%] | inhibition at 10 µM (SR) [%] | inhibition at 10 µM (HCT-116) [%] | inhibition at 10 µM (RPMI-8226) [%] | inhibition at 10 µM (UO-31) [%] | inhibition at 10 µM (PC-3) [%] | inhibition at 10 µM (NCI-H522) [%] | inhibition at 10 µM (A549/ATCC) [%] | also measured |
| --- | --- | --- | --- | --- | --- | --- | --- | --- | --- | --- | --- | --- | --- | --- | --- | --- | --- | --- | --- |
| Cc1cc(S(=O)(=O)Nc2nc(-c3ccccc3)c3ccccc3n2)c(SCc2ccccc2)cc1Cl [Compound 10, 2-Benzylthio-4-chloro-5-methyl-N-(4-phenylquinazolin-2-yl)benzenesulfonamide] | 49.2 | 57 ± 1 | 44 ± 1 | 61 ± 2 | 61 | 192 to 198 °C | 9 | 29 | 17 | 25 | 6 | 14 | 8 | 25 | 5 |  |  |  |  |
| Cc1cc(S(=O)(=O)Nc2nc(-c3ccccc3)c3ccccc3n2)c(SCc2cc3c(cc2Cl)OCO3)cc1Cl [Compound 12, 4-Chloro-2-(6-chlorobenzo[d][1,3]dioxol-5-ylmethylthio)-5-methyl-N-(4-phenylquinazolin-2-yl)benzenesulfonamide] | 48.1 | 51 ± 2 | 37 ± 1 | 46 ± 1 | 46 |  | 5 | 33 |  | 12 |  |  | 6 | 2 | 25 | 14 | 16 | 14 | IC50 (HCT-116, HeLa, MCF-7): 44.7 µM; IC50 (HaCaT; Homo sapiens, HaCaT, non-carcinogenic cell line, mean ± SD): 64 ± 2 µM; activity against HCT-116 fold higher compared with HaCaT (HaCaT; selectivity HCT-116 vs HaCaT): 1.7 fold; inhibition of growth of HaCaT cells fold weaker than HeLa cells (HaCaT; selectivity HeLa vs HaCaT): 1.4 fold |
| Cc1cc(S(=O)(=O)Nc2nc(C)c3ccccc3n2)c(SCC(N)=O)cc1Cl [Compound 13, 2-Carbamoylmethylthio-4-chloro-5-methyl-N-(4-methylquinazolin-2-yl)benzenesulfonamide] | 75.4 | 440 ± 4 | 260 ± 5 | 320 ± 22 |  | 232 to 235 °C (dec.) | 6 |  |  | 11 | 5 | 12 |  |  | 8 |  | 4 |  |  |
| CCOC(=O)CSc1cc(Cl)c(C)cc1S(=O)(=O)Nc1nc(C)c2ccccc2n1 [Compound 15, 4-Chloro-2-(2-ethoxy-2-oxoethylthio)-5-methyl-N-(4-methylquinazolin-2-yl)benzenesulfonamide] |  | 160 ± 6 | 110 ± 2 | 230 ± 7 |  | 192 to 194 °C |  |  |  |  |  |  |  |  |  |  |  |  |  |

Continued, in another order:

| half-life at 10 μM [1] [min] | IC50 (MCF-7 (breast cancer)) [µM] | IC50 (HCT-116 (colon cancer)) [µM] | IC50 (HeLa (cervical cancer); MTT, 72 h, mean ± SD) [µM] | IC50 (HeLa (cervical cancer); [2]) [µM] | melting point | Compound | inhibition at 10 µM (MCF-7) [%] | inhibition at 10 µM (UACC-62) [%] | inhibition at 10 µM (HOP-92) [%] | inhibition at 10 µM (MOLT-4) [%] | inhibition at 10 µM (EKVX) [%] | inhibition at 10 µM (SR) [%] | inhibition at 10 µM (HCT-116) [%] | inhibition at 10 µM (RPMI-8226) [%] | inhibition at 10 µM (UO-31) [%] | inhibition at 10 µM (PC-3) [%] | inhibition at 10 µM (NCI-H522) [%] | inhibition at 10 µM (A549/ATCC) [%] | also measured |
| --- | --- | --- | --- | --- | --- | --- | --- | --- | --- | --- | --- | --- | --- | --- | --- | --- | --- | --- | --- |
|  | 105 ± 3 | 62 ± 1 | 74 ± 4 | 74 | 162 to 165 °C | CCOC(=O)CSc1cc(Cl)c(C)cc1S(=O)(=O)Nc1nc(-c2ccccc2)c2ccccc2n1 [Compound 16, 4-Chloro-2-(2-ethoxy-2-oxoethylthio)-5-methyl-N-(4-phenyl-quinazolin-2-yl)benzenesulfonamide] |  |  |  |  |  |  |  |  |  |  |  |  |  |
| 37.7 | 115 ± 2 | 54 ± 1 | 71 ± 2 | 71 |  | Cc1nc(NS(=O)(=O)c2cc(C(=O)Nc3ccc(Cl)cc3)c(Cl)cc2SCc2ccccc2)nc2ccccc12 [Compound 21, 2-Benzylthio-4-chloro-5-(4-chlorophenylcarbamoyl)-N-(4-methylquinazolin-2-yl)benzenesulfonamide] | 5 | 6 | 8 | 7 | 8 | 3 | 4 | 12 | 22 | 8 | 20 | 8 |  |
